In patent publication US11331327B2, “Antibacterial use of halogenated salicylanilides” (UNION therapeutics A/S, priority 2014, dated 2022):
Marks after values point to notes of the source that are not given here.

How the values were obtained:
[1] = tested on: MRSA 01, MRSA 15, MRSA 16; assay: Mutational frequency evaluation, Example 1; type: cell-based, Staphylococcus aureus; conditions: for Resistance mutation rate at MIC × 1: tested against one strain: MRSA 01
Experimental: Adequate dilutions were plated on plates without the compound.
(§1) Viable cell growth was enumerated after 48 hours of incubation at 37° C.
(§2) Ten replicates were carried out for each strain and fusidic acid, mupirocin and retapamulin were used as controls for the MRSA 01 strain.

[2] = tested on: MRSA 01, MRSA 15, MRSA 16; assay: Mutational frequency evaluation, Example 3; type: cell-based, Staphylococcus aureus; conditions: for Frequency of spontaneous mutations conferring resistance: strain MRSA 01, average of 10 replicates; for mutation frequency at MIC×1: no colony grew
Experimental: Strains were conserved in Luria Bertani (LB) Broth supplemented with glycerol 15% (v/v) at −80° C., and reactivated by isolation on LB agar plates. Strains were cultivated aerobically in Mueller Hinton (MH) Broth-cation adjusted at 37° C.
The frequency of spontaneous single-step mutations was determined on the 3 different strains as described by Drago et al. (2005) and Pannu et al. (2011). […] Adequate dilutions were plated on plates without the compound.
as §1
The spontaneous resistance frequency for an isolate-drug combination was calculated from the number of colonies that grew on plates containing drug versus the number of colonies that grew on drug-free agar.
as §2

Row | Compound | Resistance mutation rate at MIC × 1 [1] | mutational frequency at MIC×1 ([2]; MRSA 01) | mutational frequency at MIC×10 ([2]; MRSA 01) | Frequency of spontaneous mutations conferring resistance ([2]; concentration MIC × 1) | Frequency of spontaneous mutations conferring resistance ([2]; concentration MIC × 2) | Frequency of spontaneous mutations conferring resistance ([2]; concentration MIC × 4) | Frequency of spontaneous mutations conferring resistance ([2]; concentration MIC × 10) | mutational frequency at MIC×1 ([1]; text summary of Table 4) | mutation frequency at MIC×1 ([2]; MRSA 15) | mutation frequency at MIC×1 ([2]; MRSA 16) | mutational frequency at MIC×1 ([2]; all tested strains (MRSA 01, MRSA 15, MRSA 16), below the detection limit)
1 | CC(=O)O[C@H]1C[C@@]2(C)[C@@H](C[C@@H](O)[C@H]3[C@@]4(C)CC[C@@H](O)[C@@H](C)[C@@H]4CC[C@@]32C)/C1=C(\CCC=C(C)C)C(=O)O [Fusidic acid] | ≥4 × 10^−5* | ≥ 4.10^−5 | 3.10^−7 | ≥4.10^−5 | 2.10^−5 | 1.10^−6 | 3.10^−7 |  |  |  | 
2 | C/C(=C\C(=O)OCCCCCCCCC(=O)O)C[C@@H]1OC[C@H](C[C@@H]2O[C@H]2[C@@H](C)[C@H](C)O)[C@@H](O)[C@H]1O [Mupirocin] | ≥4 × 10^−5* |  |  | ≥4.10^−5 | 8.10^−8 | 1.10^−8 | ≤4.10^−9 |  |  |  | 
3 | O=C(Nc1ccc([N+](=O)[O-])cc1Cl)c1cc(Cl)ccc1O [Niclosamide, 5-chloro-N-(2-chloro-4-nitrophenyl)-2-hydroxybenz-amide] |  |  |  | <4 × 10^−9* | <4 × 10^−9* | <4 × 10^−9* | <4 × 10^−9* | < 4×10^−10 | < 3×10^−8 | < 1×10^−7 | < 4.10^−9
4 | C=C[C@]1(C)C[C@@H](OC(=O)CS[C@@H]2C[C@H]3CC[C@@H](C2)N3C)[C@]2(C)[C@H](C)CC[C@]3(CCC(=O)[C@H]32)[C@@H](C)[C@@H]1O [Retapamulin] | ≥4 × 10^−5* |  |  | ≥4.10^−5 | 3.10^−7 | 2.10^−8 | <4.10^−9* |  |  |  | 
